Drawing on publication PMC11676996, “Inhibitory Effects of Sulfur Derivatives on Leishmania tarentolae Cell Viability and Secreted Acid Phosphatase In Vitro” (Microorganisms, 2024), this text covers IC50 for 1 compound.

This experiment has as its system T1, secreted acid phosphatase (SAP).
T1 construct: native enzyme activity in cell-free culture supernatant
In words: pNPP phosphatase assay, compound added directly to control cell-free supernatant, dose-dependent. The experiment is classed as biochemical, Leishmania tarentolae.

One may read the IC50 as the concentration at which inhibition is half-maximal. Higher therefore signals a need for much substance.

As for `COc1cc(/C=N/NC(=S)SC)cc(OC)c1O` [ZZ1-04], the IC50 was in the range of 60 to 80 µM.
